Reference: patent publication US20260306526A1, “COMBINATION THERAPY FOR BACTERIAL INFECTIONS COMPRISING ZINC-CHELATOR, BETA-LACTAM ANTIBIOTIC AND SERINE BETA-LACTAMASE INHIBITOR” (priority 2023, published 2026)
Where “and” joins values, the source holds several entries; their conditions need not be identical. Equal values may be shown once.

Assays:
[1] = system: Klebsiella pneumoniae Kpn St147; test: MIC determination, checkerboard broth microdilution, meropenem + zinc chelator + avibactam (Example 1); assay type: cell-based
Procedure: Antimicrobial susceptibility testing (AST) by broth microdilution was performed according to The European Committee on Antimicrobial Susceptibility Testing.
Sensititre™ FINMER meropenem 64-0.03 μg/ml plates (Thermo Fischer Diagnostics custom plates; YFINMER) were modified by adding avibactam to rows 3 to 8 in concentrations of 64, 16, 8, 4, 1 and 0.25 μg/ml, respectively. The zinc chelator was added to the wells of the plate, where applicable. Three plates were made per experiment, one without the zinc chelator (plate 1), one with 16 μg/ml of the zinc chelator (plate 2) and one with 32 μg/ml of the zinc chelator (plate 3). The first row in all plates was used as a positive control for meropenem only, and the second row included the zinc chelator in addition to meropenem (no avibactam added to rows 1 or 2). The zinc chelator was added at the indicated concentration to rows 3-8 of plates 2 and 3.
The effect of the combination of zinc chelator/MEM/avibactam was tested on a clinically isolated Klebsiella pneumoniae Kpn St147 actively constitutionally expressing the two resistance mechanisms NDM-1 and KPC-2 simultaneously. As a negative control, bacteria+meropenem was tested alone. As a positive control, bacteria+MEM+zinc chelator was used. In Table 1 and 2, concentrations (μg/ml) of meropenem are given in the top row left to right and avibactam concentrations (μg/ml) are given top to bottom in column 1. […] A blank cell indicates no growth.
The fractional inhibitory concentration (FIC) is defined as the concentration that kills when used in combination with another agent divided by the concentration that has the same effect when used alone. The FIC index (FICI) for the combination of two agents is the sum of their individual FIC values. […]

[2] = system: Acinetobacter baumannii ST15; test: MIC determination, fixed concentration of sBLI (Examples 11-18); assay type: cell-based; details: NDM-1, OXA-51, ADC-263, caMHB
Procedure: Antimicrobial susceptibility testing (AST) by broth microdilution (MIC determination) was performed according to The European Committee on Antimicrobial Susceptibility Testing (EUCAST) guidelines (see Reading guide for broth microdilution Version 5.0, 2024: https://www.eucast.org).
For combinations containing meropenem as the antibiotic, Sensititre™ FINMER meropenem 64-0.03 μg/mL plates (Thermo Fischer Diagnostics custom plates; YFINMER) were used in most of the experiments. For other antibiotics (and for meropenem whenever a higher start concentration than 64 μg/mL was needed) sterile clear round bottom polystyrene (non-treated) 96-well microplates (Corning 3788) were used for making serial two-fold dilutions of the antibiotic in cation-adjusted Mueller Hinton II broth (caMHB; Thermo Scientific, T3462, containing 29.4 μM Zn^2+ or MILLIPORE, 90922-500G, containing 5.6 μM Zn^2+), across the columns of the microtiter plate (128-0.06 μg/mL; columns 1-12).
The checkerboard plates were all modified by adding a serine β-lactamase inhibitor (sBLI) at a fixed concentration of 16 μg/mL. Additionally, the zinc chelator was added at various fixed concentrations. Samples were mixed so that all plates contained a control containing antibiotic alone (no sBLI, no zinc chelator), a sample containing antibiotic and sBLI (double combination; no zinc chelator), and a sample containing antibiotic, sBLI and zinc chelator (triple combination). All test wells used in each plate contained growth medium (caMHB), and inoculated bacteria at a final inoculum between 3-7×10^5 CFU/mL. […] Synergy for the triple combination (antibiotic, sBLI, and zinc chelator) was defined as when the MIC in any of the rows containing the zinc chelator in combination with antibiotic and sBLI (triple combination), was lower than for antibiotic alone and lower than for the antibiotic and sBLI double combination.
An X in rows 1~4 in the table indicates growth of the bacterial inoculum, while a blank cell indicates no growth. Concentrations (μg/mL) of MEM are given in row 0. SUL and the zinc chelator were added in fixed concentrations (SUL at 16 μg/mL in rows 2-4, zinc chelator at 16 μg/mL in row 3 and at 8 μg/mL in row 4). As a control, the effect of MEM alone was tested (row 1). All wells contained bacterial growth medium (caMHB, 29.4 μM Zn^2+) and were inoculated with the test bacterium. The grey cells indicate the meropenem MIC.
An X in rows 1~4 in the table indicates growth of the bacterial inoculum, while a blank cell indicates no growth. Concentrations (μg/mL) of AMOX are given in row 0. SUL and the zinc chelator were added in fixed concentrations (SUL at 16 μg/mL in rows 2-4, zinc chelator at 16 μg/mL in row 3 and at 8 μg/mL in row 4). As a control, the effect of AMOX alone was tested (row 1). All wells contained bacterial growth medium (caMHB, 29.4 μM Zn^2+) and were inoculated with the test bacterium. The grey cells indicate the amoxicillin MIC.
Two technical replicates were performed for each sample. An X in rows 1-8 in the table indicates growth of the bacterial inoculum, while a blank cell indicates no growth. Concentrations (μg/mL) of AMP are given in row 0. SUL and the zinc chelator were added in fixed concentrations (SUL at 16 μg/mL in rows 3-8, zinc chelator at 16 μg/mL in rows 5-6 and at 8 μg/mL in rows 7-8). As a control, the effect of AMP alone was tested (rows 1-2). All wells contained bacterial growth medium (caMHB, 29.4 μM Zn^2+) and were inoculated with the test bacterium. […]

CN(C[C@H](O)[C@@H](O)[C@H](O)[C@H](O)CO)C(=O)c1ccc(CN(Cc2ccccn2)Cc2ccccn2)nc1 [zinc chelator]
FICI Zinc Chelator ([1]; zinc chelator 16 μg/mL, MEM/avibactam 0.5/0.25 (r9), 0.25/1 (r10), 0.25/4 (r11), 0.06/8 (r12) μg/mL): 0.008
FICI Zinc Chelator ([1]; zinc chelator 32 μg/mL, MEM/avibactam 0.5/0.25 (r13), 0.12/1 (r14), 0.06/4 (r15), 0.06/8 (r16) μg/mL): 0.016
amplification of the inhibitory effect ([1]; zinc chelator at 16 μg/ml with MEM + avibactam): about 64 fold
Synergy with the zinc chelator observed at concentration ([2]; Example 11, with MEM and SUL 16 μg/mL, 29.4 μM Zn2+): 16 µg/mL
Synergy with the zinc chelator observed at concentration ([2]; Example 12, with AMOX and SUL 16 μg/mL, 29.4 μM Zn2+): 16 µg/mL
Synergy with the zinc chelator observed at concentration ([2]; Example 13, with AMP and SUL 16 μg/mL, 29.4 μM Zn2+): 16 µg/mL
Synergy with the zinc chelator observed at concentration ([2]; Example 14, with PIP and TAZ 16 μg/mL, 29.4 μM Zn2+): 16 µg/mL and 8 µg/mL
Synergy with the zinc chelator observed at concentration ([2]; Example 18, with PIP and TAZ 16 μg/mL, 5.6 μM Zn2+): 16 µg/mL and 8 µg/mL
